Test results published in ChEMBL document CHEMBL5365549, “Neurosteroids and Postpartum Depression: The Mechanism, Efficacy, and Approval of Brexanolone and Zurzuvae” (ACS Med Chem Lett, 2023).

Legend:
[1] = Cmax in human at 30 mg administered as formulated fasted capsules; assay type: ADME; design: dose 30 mg; conditions: in vivo, po
[2] = AUC (0 to infinity) in human at 30 mg administered as formulated fasted capsules; assay type: ADME; design: dose 30 mg; conditions: in vivo, po
[3] = Inhibition of rat brain cortical membrane GABA alpha receptor by TBPS binding assay; assay type: cell membranes, Cortex
[4] = Cmax in human at 30 mg administered as formulated fed (high-fat meal) capsules; assay type: ADME; design: dose 30 mg; conditions: in vivo, po
[5] = AUC (0 to t) in human at 30 mg administered as formulated fed (high-fat meal) capsules; assay type: ADME; design: dose 30 mg; conditions: in vivo, po
[6] = AUC (0 to infinity) in human at 30 mg administered as formulated fed (high-fat meal) capsules; assay type: ADME; design: dose 30 mg; conditions: in vivo, po
[7] = AUC (0 to t) in human at 30 mg administered as formulated fasted capsules; assay type: ADME; design: dose 30 mg; conditions: in vivo, po

C[C@@]1(O)CC[C@H]2[C@H](CC[C@@H]3[C@@H]2CC[C@]2(C)[C@@H](C(=O)CO)CC[C@@H]32)C1
Cmax [1]: 21.8 ng/mL | AUC(0-inf) [2]: 640 ng·h/mL | IC50 [3]: 86 nM | Cmax [4]: 63.1 ng/mL | AUC(0-t) [5]: 838 ng·h/mL | AUC(0-inf) [6]: 1010 ng·h/mL | AUC(0-t) [7]: 530 ng·h/mL

CC(=O)[C@H]1CC[C@H]2[C@@H]3CC[C@@H]4C[C@@](O)(C(F)F)CC[C@@H]4[C@H]3CC[C@]12C
IC50 [3]: 33 nM

CC(=O)[C@H]1CC[C@H]2[C@@H]3CC[C@H]4C[C@](C)(O)CC[C@@H]4[C@H]3CC[C@]12C
IC50 [3]: 93 nM

COC[C@@]1(O)CC[C@H]2[C@H](CC[C@@H]3[C@@H]2CC[C@]2(C)[C@@H](C(=O)CO)CC[C@@H]32)C1
IC50 [3]: 170 nM

COC[C@@]1(O)CC[C@H]2[C@H](CC[C@@H]3[C@@H]2CC[C@]2(C)[C@@H](C(C)=O)CC[C@@H]32)C1
IC50 [3]: 41 nM

COC[C@@]1(O)CC[C@H]2[C@@H](CC[C@@H]3[C@@H]2CC[C@]2(C)[C@@H](C(=O)CO)CC[C@@H]32)C1
IC50 [3]: 94 nM
